Converted amounts (≈) assume the structure as drawn. “And” between values parts separate entries of the source, which are not always exact repeats. Equal entries are not always repeated. Where two headings read alike, the source gives them in different places.
Legend:
[1] = system: P. aeruginosa PAO1; format: cell-based, Pseudomonas aeruginosa
Method: (§1) The synergy of the UTBLPs with various antibiotics was assessed using checkerboard assay as previously described. Briefly, the combination of antibiotic and OMP at varying concentrations were incubated with bacterial inoculum (5 × 10^5 CFU/mL final concentration) at 37 °C for 18 h. Growth in the form of turbidity was confirmed using an EMax Plus microplate reader (Molecular Devices, Union City, CA, USA) at 590 nm. Fractional inhibitory concentration index (FICI) was used to evaluate the interaction between the antibiotic and the OMP. FICI is the sum of the FIC of the antibiotic and the FIC of the OMP. The FIC value is calculated by dividing the MIC of the agents in combination by the MIC of the agent alone. FICI ≤ 0.5 is synergistic, 0.5 < x ≤ 4 is additive, and >4 is antagonistic.

[2] = system: E. coli ATCC 25922; format: cell-based, Escherichia coli
Method: as §1

[3] = system: A. baumannii ATCC 17978; format: cell-based, Acinetobacter baumannii; conditions: niclosamide alone
Method: as §1

[4] = system: E. coli 94474; experiment: microbe, parasite or virus in culture; format: cell-based, Escherichia coli; conditions: Escherichia coli, 18 h; E. coli 94474 (mcr-1 +); read-out: MICs of various antibiotics
Method: (§2) The in vitro antibacterial activity of the UTBLPs was assessed against wild-type and clinically isolated bacterial strains. To obtain the MIC of the compounds, the microbroth dilution susceptibility assay was performed according to the Clinical and Laboratory Standards Institute (CLSI, Wayne, PA, USA) guidelines and as previously described. Briefly, the compounds at varying concentrations were incubated with bacterial inoculum (5 × 10^5 CFU/mL final concentration) at 37 °C for 18 h. Growth in the form of turbidity was confirmed using an EMax Plus microplate reader (Molecular Devices, San Jose, CA, USA) at 590 nm.

[5] = system: E. coli 94393; experiment: microbe, parasite or virus in culture; format: cell-based, Escherichia coli; conditions: Escherichia coli, 18 h; E. coli 94393 (mcr-1 +); read-out: MICs of various antibiotics
Method: as §2

[6] = system: A. baumannii AB027; experiment: microbe, parasite or virus in culture; format: cell-based, Acinetobacter baumannii; conditions: Acinetobacter baumannii, 18 h; A. baumannii AB027; read-out: MICs of various antibiotics
Method: as §2

[7] = system: P. aeruginosa PA259-96196; experiment: microbe, parasite or virus in culture; format: cell-based, Pseudomonas aeruginosa; conditions: Pseudomonas aeruginosa, PA25996196, 18 h; P. aeruginosa 259-96196; read-out: MICs of various antibiotics
Method: as §2

[8] = system: P. aeruginosa PA262-101856; experiment: microbe, parasite or virus in culture; format: cell-based, Pseudomonas aeruginosa; conditions: Pseudomonas aeruginosa, PA262101856, 18 h; P. aeruginosa 262-101856; read-out: MICs of various antibiotics
Method: as §2

[9] = system: K. pneumoniae 113250; experiment: microbe, parasite or virus in culture; format: cell-based, Klebsiella pneumoniae; conditions: Klebsiella pneumoniae, 18 h; K. pneumoniae 113250; read-out: MICs of various antibiotics
Method: as §2

[10] = system: E. cloacae 118564; experiment: microbe, parasite or virus in culture; format: cell-based, Enterobacter cloacae; conditions: Enterobacter cloacae, 18 h; E. cloacae 118564; read-out: MICs of various antibiotics
Method: as §2

[11] = system: P. aeruginosa PA259-96196; format: cell-based, Pseudomonas aeruginosa; conditions: novobiocin alone
Method: as §1

[12] = system: P. aeruginosa PA262-101856; format: cell-based, Pseudomonas aeruginosa; conditions: novobiocin alone
Method: as §1

[13] = system: E. coli 94474; format: cell-based, Escherichia coli; conditions: novobiocin alone
Method: as §1

[14] = system: E. coli 94393; format: cell-based, Escherichia coli; conditions: novobiocin alone
Method: as §1

[15] = system: E. cloacae 118564; format: cell-based, Enterobacter cloacae; conditions: novobiocin alone
Method: as §1

[16] = system: A. baumannii AB027; format: cell-based, Acinetobacter baumannii; conditions: novobiocin alone
Method: as §1

[17] = system: A. baumannii 92247; format: cell-based, Acinetobacter baumannii; conditions: novobiocin alone
Method: as §1

[18] = system: A. baumannii AB92247; experiment: microbe, parasite or virus in culture; format: cell-based, Acinetobacter baumannii; conditions: Acinetobacter baumannii, AB92247, 18 h; A. baumannii 92247; read-out: MICs of various antibiotics
Method: as §2

SMILES | MIC [4] | MIC [5] | MIC [6] | MIC [7] | MIC [8] | MIC [9] | also measured
O=C(Nc1ccc([N+](=O)[O-])cc1Cl)c1cc(Cl)ccc1O [Niclosamide, niclosamide] | – | – | – | – | – | – | MICantibiotic ([1]; niclosamide alone): 1024 µg/mL; MICantibiotic ([2]; niclosamide alone): > 128 µg/mL and > 256 µg/mL; MICantibiotic [3]: 1024 µg/mL and > 1024 µg/mL and 512 µg/mL
CNC(C)C1CCC(N)C(OC2C(N)CC(N)C(OC3OCC(C)(O)C(NC)C3O)C2O)O1 (stereo not drawn) [GEN, gentamicin] | 16 µg/mL (≈ 33.5 µM) | ≤ 0.5 µg/mL | 32 µg/mL (≈ 67 µM) | > 32 µg/mL | > 32 µg/mL | ≤ 0.5 µg/mL | MIC [10]: 1 µg/mL (≈ 2.09 µM)
CN(C)c1cc(CNCC(C)(C)C)c(O)c2c1C[C@H]1C[C@H]3[C@H](N(C)C)C(O)=C(C(N)=O)C(=O)[C@@]3(O)C(O)=C1C2=O [OMC, omadacycline] | 16 µg/mL (≈ 28.7 µM) | 4 µg/mL (≈ 7.19 µM) | 1 µg/mL (≈ 1.8 µM) | 64 µg/mL (≈ 115 µM) | 64 µg/mL (≈ 115 µM) | 2 µg/mL (≈ 3.59 µM) | –
C[C@@H](O)[C@H]1C(=O)N2C(C(=O)O)=C(S[C@@H]3CN[C@H](C(=O)Nc4cccc(C(=O)O)c4)C3)[C@H](C)[C@H]12 [ETP, ertapenem] | ≤ 0.03 µg/mL | ≤ 0.03 µg/mL | – | > 32 µg/mL | > 32 µg/mL | ≤ 0.03 µg/mL | –
C[C@H]1COc2c(N3CCN(C)CC3)c(F)cc3c(=O)c(C(=O)O)cn1c23 [LEV, levofloxacin] | 32 µg/mL (≈ 88.6 µM) | 1 µg/mL (≈ 2.77 µM) | 8 µg/mL (≈ 22.1 µM) | 256 µg/mL (≈ 708 µM) | 64 µg/mL (≈ 177 µM) | 0.125 µg/mL (≈ 0.346 µM) | –
C[C@@H](O)[C@H]1C(=O)N2C(C(=O)O)=C(SCCN=CN)C[C@H]12 [IMI, imipenem] | 0.25 µg/mL (≈ 0.835 µM) | 0.25 µg/mL (≈ 0.835 µM) | 32 µg/mL (≈ 107 µM) | 32 µg/mL (≈ 107 µM) | 32 µg/mL (≈ 107 µM) | 0.25 µg/mL (≈ 0.835 µM) | –
CO[C@@H]1[C@@H](OC(N)=O)[C@@H](O)[C@H](Oc2ccc3c(O)c(NC(=O)c4ccc(O)c(CC=C(C)C)c4)c(=O)oc3c2C)OC1(C)C [Novobiocin, novobiocin] | – | – | – | – | – | – | MICantibiotic ([1]; novobiocin alone): 512 µg/mL and 1024 µg/mL; MICantibiotic [11]: 2048 µg/mL and 1024 µg/mL; MICantibiotic [12]: 1024 µg/mL and 2048 µg/mL and > 1024 µg/mL; MICantibiotic [13]: 256 µg/mL and 128 µg/mL; MICantibiotic [14]: 128 µg/mL and 64 µg/mL; MICantibiotic ([2]; novobiocin alone): 32 µg/mL and 64 µg/mL; MICantibiotic [15]: 256 µg/mL; MICantibiotic [16]: 8 µg/mL and 16 µg/mL; MICantibiotic [17]: 2 µg/mL and 4 µg/mL
CN(C)c1cc(NC(=O)CNC(C)(C)C)c(O)c2c1C[C@H]1C[C@H]3[C@H](N(C)C)C(O)=C(C(N)=O)C(=O)[C@@]3(O)C(O)=C1C2=O [TGC, tigecycline] | 1 µg/mL (≈ 1.71 µM) | 0.25 µg/mL (≈ 0.427 µM) | 4 µg/mL (≈ 6.83 µM) | 32 µg/mL (≈ 54.6 µM) | 32 µg/mL (≈ 54.6 µM) | – | MIC [18]: 0.25 µg/mL (≈ 0.427 µM)
C[C@H]1[C@H](NC(=O)/C(=N\OC(C)(C)C(=O)O)c2csc(N)n2)C(=O)N1S(=O)(=O)O [AZT, aztreonam] | ≤ 0.12 µg/mL | ≤ 0.12 µg/mL | – | 32 µg/mL (≈ 73.5 µM) | 32 µg/mL (≈ 73.5 µM) | ≤ 0.12 µg/mL | MIC [10]: ≤ 0.12 µg/mL
CO/N=C(\C(=O)N[C@@H]1C(=O)N2C(C(=O)O)=C(COC(C)=O)CS[C@H]12)c1csc(N)n1 [CTX, cefotaxime] | – | – | > 256 µg/mL | 2050 µg/mL (≈ 4500 µM) | 128 µg/mL (≈ 281 µM) | – | –

Reference: PMC8963254, “Effects of Lysine N-ζ-Methylation in Ultrashort Tetrabasic Lipopeptides (UTBLPs) on the Potentiation of Rifampicin, Novobiocin, and Niclosamide in Gram-Negative Bacteria” (Antibiotics, 2022)
